Article PMC6934184, “Selective DNA-PKcs inhibition extends the therapeutic index of localized radiotherapy and chemotherapy” (The Journal of Clinical Investigation, 2019)

Target: T1, MST1R (RON) (Homo sapiens, UniProt Q04912)
T1 construct: purchased Thermo Fisher Scientific (Life Technologies) SelectScreen
Experiment: SelectScreen Z'LYTE
Format: biochemical
How it was run: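 SelectScreen broad panel; activity (Z'LYTE, Adapta) plus binding formats. ATP: Km app for CSF1R Z'LYTE; 10 for CAMK1 Adapta. Readout = % per kinase.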

T1 sequence (Q04912 25-1400): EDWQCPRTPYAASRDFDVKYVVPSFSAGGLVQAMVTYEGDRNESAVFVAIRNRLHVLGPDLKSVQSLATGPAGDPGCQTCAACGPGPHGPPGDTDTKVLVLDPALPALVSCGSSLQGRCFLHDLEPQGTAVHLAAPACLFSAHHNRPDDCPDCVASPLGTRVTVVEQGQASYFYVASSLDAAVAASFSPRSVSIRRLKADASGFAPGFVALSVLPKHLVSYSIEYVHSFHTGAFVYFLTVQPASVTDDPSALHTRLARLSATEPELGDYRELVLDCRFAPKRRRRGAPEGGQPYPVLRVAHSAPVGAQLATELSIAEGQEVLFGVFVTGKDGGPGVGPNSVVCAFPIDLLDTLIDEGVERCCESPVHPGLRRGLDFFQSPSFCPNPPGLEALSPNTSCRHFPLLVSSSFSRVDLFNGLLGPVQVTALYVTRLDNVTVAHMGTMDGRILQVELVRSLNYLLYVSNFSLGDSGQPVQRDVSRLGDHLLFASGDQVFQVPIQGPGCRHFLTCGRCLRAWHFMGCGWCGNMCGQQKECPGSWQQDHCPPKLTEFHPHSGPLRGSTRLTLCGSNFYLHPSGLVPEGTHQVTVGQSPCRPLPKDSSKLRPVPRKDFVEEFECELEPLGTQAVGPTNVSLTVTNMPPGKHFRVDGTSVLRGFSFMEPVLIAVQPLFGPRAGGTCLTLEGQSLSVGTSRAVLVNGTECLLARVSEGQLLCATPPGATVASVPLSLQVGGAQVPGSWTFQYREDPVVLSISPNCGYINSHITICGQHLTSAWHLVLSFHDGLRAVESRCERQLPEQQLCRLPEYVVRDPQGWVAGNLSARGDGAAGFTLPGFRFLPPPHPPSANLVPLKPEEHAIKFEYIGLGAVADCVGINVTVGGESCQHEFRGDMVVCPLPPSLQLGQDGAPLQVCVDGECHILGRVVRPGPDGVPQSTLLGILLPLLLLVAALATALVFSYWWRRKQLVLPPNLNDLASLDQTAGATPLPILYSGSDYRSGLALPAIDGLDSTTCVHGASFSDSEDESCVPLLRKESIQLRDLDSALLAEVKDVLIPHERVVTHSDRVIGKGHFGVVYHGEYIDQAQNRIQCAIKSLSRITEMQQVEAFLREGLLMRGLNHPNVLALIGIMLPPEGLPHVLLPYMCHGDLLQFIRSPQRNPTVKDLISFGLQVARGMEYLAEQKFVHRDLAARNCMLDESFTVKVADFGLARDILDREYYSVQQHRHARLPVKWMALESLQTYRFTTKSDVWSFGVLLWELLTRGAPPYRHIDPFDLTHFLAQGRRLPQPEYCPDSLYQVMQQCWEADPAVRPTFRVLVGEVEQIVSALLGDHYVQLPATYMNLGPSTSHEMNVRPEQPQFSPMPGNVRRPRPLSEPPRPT

CN(C(=O)CN1CCOCC1)c1ccc2sc3c(-c4cccc5c(=O)cc(N6CC7CCC(C6)O7)oc45)cccc3c2c1 [NU5455]
inhibition at 1 µM: -13.4%
